Values quoted from earlier work in paper PMC10517971, “An inverse agonist of orphan receptor GPR61 acts by a G protein-competitive allosteric mechanism” (Nature Communications, 2023).

Columns and labels:
GPR61 = tested on: GPR61; parameters: method as in PMID 14607265, PMID 31352450; conditions: cited from earlier work
[1] = cited from earlier work

**Q.** Which results are given for `CCCCCCCCCOc1ccc2[nH]cc(CCN)c2c1` [Compound 5-NOT, 5-nonyloxy-tryptamine]?
**A.** potency as GPR61 inverse agonist (GPR61): low potency; selectivity (GPR61): lack of selectivity; solubility [1]: low solubility
